Patent US20260223850A1, “SUBSTITUTED PYRROLIDONE COMPOUND, PREPARATION METHOD THEREFOR, COMPOSITION AND APPLICATION THEREOF” (QINGDAO KINGAGROOT CHEMICAL COMPOUND CO., LTD., priority 2023, published 2026)

Columns and labels:
Assay type in all cases: in vivo
Echinochloa phyllopogon = assay: Seedling stage sealing experiment for water-seeding; conditions: 120 g a.i./ha, 15 days, fresh weight control rate
How it was run: (§1)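 Grades run from 0 (no effect) to 9 (completely dead), each band set by percent fresh-weight growth control. Application by spray tower at 120, 60, 30 and 15 g a.i./ha in triplicate; evaluated after 15 days of greenhouse culture.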

Echinochloa crusgalli = assay: as above; conditions: 120 g a.i./ha, 15 days, fresh weight control rate
Digitaria sanguinalis = assay: as above; conditions: 120 g a.i./ha, 15 days, fresh weight control rate
How it was run: as §1

Huaidao (rice cultivar) = assay: Seedling stage sealing experiment for water-seeding (crop safety); conditions: 120 g a.i./ha, 15 days, fresh weight control rate; for Huaidao (rice cultivar) plant damage level (growth control rate): spray, seedling stage sealing for water-seeding; for Huaidao (rice cultivar) plant damage level: seedling stage sealing
How it was run: as §1

Leptochloa chinensis = assay: Seedling stage sealing experiment for water-seeding; conditions: 120 g a.i./ha, 15 days, fresh weight control rate
How it was run: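 Seeds sown in soil-filled bowls kept moist in water-filled boxes; compound in acetone diluted with water and spray-applied at 120, 60, 30 and 15 g a.i./ha, triplicate. After 15 days in greenhouse, fresh-weight growth control scored on a 0–9 scale (9 = dead, 0 = no effect), averaged.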

[1] = spray, seedling stage sealing for water-seeding

| Compound | Echinochloa phyllopogon activity level (growth control rate) (Echinochloa phyllopogon; seedling stage sealing) | Echinochloa crusgalli activity level (growth control rate) (Echinochloa crusgalli; seedling stage sealing) | Echinochloa crusgalli activity level (growth control rate) (Echinochloa crusgalli; [1]) | Digitaria sanguinalis activity level (growth control rate) (Digitaria sanguinalis; [1]) | Leptochloa chinensis activity level (growth control rate) (Leptochloa chinensis) | other results |
| --- | --- | --- | --- | --- | --- | --- |
| CN1CC(c2ccc(F)c(F)c2)C(C(=O)Nc2cnn(C)c2Cl)C1=O (stereo not drawn) [Compound 116] | 6 (Level 6: growth control rate greater than or equal to 70% and less than 80%) | 7 (Level 7: growth control rate greater than or equal to 80% and less than 90%) | – | – | – | Digitaria sanguinalis activity level (growth control rate) (Digitaria sanguinalis; seedling stage sealing): 9 |
| Cc1cc([C@H]2CN(C)C(=O)[C@@H]2C(=O)Nc2cnn(C(F)F)c2Cl)cc(C(F)(F)F)c1 [560′] | – | – | 9 | 9 | – | Echinochloa phyllopogon activity level (growth control rate) (Echinochloa phyllopogon; [1]): 9; Huaidao (rice cultivar) plant damage level (growth control rate) (Huaidao (rice cultivar)): 0 |
| COCc1c(NC(=O)[C@H]2C(=O)N(C)C[C@@H]2c2cc(C)cc(C)c2)cnn1C [553′] | – | – | 9 | 9 | – | Huaidao (rice cultivar) plant damage level (growth control rate) (Huaidao (rice cultivar)): 2 (Level 2: growth control rate greater than or equal to 10% and less than 20%) |
| CN1C[C@H](c2cccc(C(F)(F)F)c2)[C@@H](C(=O)Nc2cnn(C)c2[S+](C)[O-])C1=O (stereo partly drawn) [539′] | – | – | 9 | 6 (Level 6: growth control rate greater than or equal to 70% and less than 80%) | – | Huaidao (rice cultivar) plant damage level (growth control rate) (Huaidao (rice cultivar)): 0 |
| CN1CC(c2ccc(F)c(C(F)(F)F)c2)C(C(=O)Nc2cnn(C)c2Cl)C1=O (stereo not drawn) [Compound 54] | 9 | 9 | – | – | 9 | Huaidao (rice cultivar) plant damage level (Huaidao (rice cultivar)): 0 |
| CN1CC(c2ccc(C(F)(F)F)cc2)C(C(=O)Nc2cnn(C)c2Cl)C1=O (stereo not drawn) [Compound 249] | 8 (Level 8: growth control rate greater than or equal to 90% and less than 100%) | 8 (Level 8: growth control rate greater than or equal to 90% and less than 100%) | – | – | – | Digitaria sanguinalis activity level (growth control rate) (Digitaria sanguinalis; seedling stage sealing): 9 |
| CCc1c(NC(=O)[C@H]2C(=O)N(C)C[C@@H]2c2cc(C)cc(C)c2)cnn1C(F)F [544′] | – | – | 9 | 9 | – | Echinochloa phyllopogon activity level (growth control rate) (Echinochloa phyllopogon; [1]): 9 |
| CN1CC(c2ccccc2)C(C(=O)Nc2cnn(C)c2Cl)C1=O (stereo not drawn) [Compound 121] | 9 | 9 | – | – | 6 (Level 6: growth control rate greater than or equal to 70% and less than 80%) | Huaidao (rice cultivar) plant damage level (Huaidao (rice cultivar)): 0 |
| COCn1ncc(NC(=O)[C@H]2C(=O)N(C)C[C@@H]2c2cc(C)cc(C)c2)c1C1CC1 [549′] | – | – | 9 | 9 | – | Echinochloa phyllopogon activity level (growth control rate) (Echinochloa phyllopogon; [1]): 9 |
| CN1CC(c2cccc(C(F)(F)F)c2)C(C(=O)Nc2cnn(C(F)F)c2)C1=O (stereo not drawn) [Compound 159] | 6 (Level 6: growth control rate greater than or equal to 70% and less than 80%) | 7 (Level 7: growth control rate greater than or equal to 80% and less than 90%) | – | – | – | Digitaria sanguinalis activity level (growth control rate) (Digitaria sanguinalis; seedling stage sealing): 9 |
| CN1C[C@H](c2cc(Br)cc(C(F)(F)F)c2)[C@@H](C(=O)Nc2cnn(C(F)F)c2Cl)C1=O [557′] | – | – | 9 | 9 | – | Echinochloa phyllopogon activity level (growth control rate) (Echinochloa phyllopogon; [1]): 6 (Level 6: growth control rate greater than or equal to 70% and less than 80%) |
| CCn1cc(NC(=O)C2C(=O)N(C)CC2c2cccc(C(F)(F)F)c2)cn1 (stereo not drawn) [Compound 456] | – | – | 7 (Level 7: growth control rate greater than or equal to 80% and less than 90%) | 9 | – | Huaidao (rice cultivar) plant damage level (growth control rate) (Huaidao (rice cultivar)): 0 |
| C=CCOc1cccc(C2CN(C)C(=O)C2C(=O)Nc2cnn(C)c2Cl)c1 (stereo not drawn) [Compound 30] | 9 | 9 | – | – | – | Digitaria sanguinalis activity level (growth control rate) (Digitaria sanguinalis; seedling stage sealing): 9 |
| CN1CC(c2cccc(C(F)(F)F)c2)C(C(=O)Nc2cn(C)nc2C(F)F)C1=O (stereo not drawn) [Compound 457] | – | – | – | 9 | – | Huaidao (rice cultivar) plant damage level (growth control rate) (Huaidao (rice cultivar)): 0 |
| CN1C[C@H](c2cccc(C(F)(F)F)c2)[C@@H](C(=O)Nc2cnn(C)c2C(F)(F)F)C1=O [538′] | – | – | 9 | 9 | – | Echinochloa phyllopogon activity level (growth control rate) (Echinochloa phyllopogon; [1]): 9 |
| CN1CC(c2cccc(C(F)(F)F)c2)C(C(=O)Nc2cnn(C)c2Cl)C1=O (stereo not drawn) [Compound 1] | 9 | 9 | – | – | – | Digitaria sanguinalis activity level (growth control rate) (Digitaria sanguinalis; seedling stage sealing): 9 |
| Cc1cc(C)cc([C@H]2CN(C)C(=O)[C@@H]2C(=O)Nc2cnn(C)c2[S+](C)[O-])c1 (stereo partly drawn) [552′] | – | – | 9 | 9 | – | Huaidao (rice cultivar) plant damage level (growth control rate) (Huaidao (rice cultivar)): 0 |
| CN1CC(c2cccc(F)c2)C(C(=O)Nc2cnn(C)c2Cl)C1=O (stereo not drawn) [Compound 15] | 6 (Level 6: growth control rate greater than or equal to 70% and less than 80%) | 9 | – | – | – | Digitaria sanguinalis activity level (growth control rate) (Digitaria sanguinalis; seedling stage sealing): 9 |
| CC(C)n1ncc(NC(=O)[C@H]2C(=O)N(C)C[C@@H]2c2cccc(C(F)(F)F)c2)c1C1CC1 [197′] | 6 (Level 6: growth control rate greater than or equal to 70% and less than 80%) | 8 (Level 8: growth control rate greater than or equal to 90% and less than 100%) | – | – | 9 | – |
| CN1CC(c2cc(F)c(F)c(F)c2)C(C(=O)Nc2c(O)nn(C)c2F)C1=O (stereo not drawn) [Compound 324] | 7 (Level 7: growth control rate greater than or equal to 80% and less than 90%) | 7 (Level 7: growth control rate greater than or equal to 80% and less than 90%) | – | – | 9 | – |
| COc1c(Cl)ccc(C2CN(C)C(=O)C2C(=O)Nc2c(O)nn(C)c2F)c1F (stereo not drawn) [Compound 331] | 7 (Level 7: growth control rate greater than or equal to 80% and less than 90%) | 9 | – | – | 9 | – |
| CN1CC(c2ccc(F)c(Cl)c2)C(C(=O)Nc2cnn(C)c2Cl)C1=O (stereo not drawn) [Compound 310] | 8 (Level 8: growth control rate greater than or equal to 90% and less than 100%) | 9 | – | – | 9 | – |
| CN1C[C@H](c2ccc(C(F)(F)F)c(F)c2)[C@@H](C(=O)Nc2cnn(C)c2Cl)C1=O [315′] | 8 (Level 8: growth control rate greater than or equal to 90% and less than 100%) | 9 | – | – | 9 | – |
| COc1cc([C@H]2CN(C)C(=O)[C@@H]2C(=O)Nc2cnn(C)c2Cl)ccc1C [321′] | 6 (Level 6: growth control rate greater than or equal to 70% and less than 80%) | 9 | – | – | 7 (Level 7: growth control rate greater than or equal to 80% and less than 90%) | – |
| CN1CC(c2ccc(F)cc2F)C(C(=O)Nc2cnn(C)c2Cl)C1=O (stereo not drawn) [Compound 304] | 6 (Level 6: growth control rate greater than or equal to 70% and less than 80%) | 7 (Level 7: growth control rate greater than or equal to 80% and less than 90%) | – | – | 5 (Level 5: growth control rate greater than or equal to 50% and less than 70%) | – |
| Cc1ccc(C2CN(C)C(=O)C2C(=O)Nc2cnn(C)c2Cl)cc1C (stereo not drawn) [Compound 314] | 6 (Level 6: growth control rate greater than or equal to 70% and less than 80%) | 7 (Level 7: growth control rate greater than or equal to 80% and less than 90%) | – | – | 9 | – |
| CN1C[C@H](c2cccc(C(F)(F)F)c2)[C@@H](C(=O)Nc2cnn(C)c2Br)C1=O [120′] | 8 (Level 8: growth control rate greater than or equal to 90% and less than 100%) | 9 | – | – | 9 | – |
| CN1C[C@H](c2cc(F)cc(C(F)(F)F)c2)[C@@H](C(=O)Nc2cnn(C3CC3)c2Cl)C1=O [290′] | 8 (Level 8: growth control rate greater than or equal to 90% and less than 100%) | 9 | – | – | 9 | – |
| CN1CC(c2ccc(C(F)(F)F)cc2)C(C(=O)Nc2c[nH]nc2Cl)C1=O (stereo not drawn) [Control compound A, reference compound] | – | – | 0 | 0 | – | Echinochloa phyllopogon activity level (growth control rate) (Echinochloa phyllopogon; [1]): 0 |
| Cc1cccc([C@H]2CN(C)C(=O)[C@@H]2C(=O)Nc2cnn(C)c2Cl)c1 [17′] | 6 (Level 6: growth control rate greater than or equal to 70% and less than 80%) | 9 | – | – | 9 | Huaidao (rice cultivar) plant damage level (Huaidao (rice cultivar)): 0 |
